Test results as given in patent publication US20170066797A1, “WITHAFERIN A ANALOGS AND USES THEREOF” (Whitehead Institute for Biomedical Research, priority 2008, published 2017).

How the values were obtained:
[1] = system: Ewing's sarcoma cells (CHP-100); settings: 72 hours, MTT, FIG. 5
Source text: Relative viable cell number was quantified by MTT assay. Results are presented as a percentage compared to wells exposed to DMSO alone. […] Points: mean of triplicate determinations; Error bars: s.d.

[2] = system: primary astrocytes / primary neurons co-culture; assay: Glutathione depletion astrocyte-neuron co-culture model (HCA, MAP-2 readout); type: cell-based, rat; settings: astrocytes pre-treated 24 h, then 5 mM homocysteic acid 48 h, FIG. 14
Procedure: FIGS. 14A and 14B. (A) Withaferin A (WA) mediates astrocyte-dependent neuronal protection. Primary astrocytes cultured from the cerebral cortices of postnatal rat pups, were treated with WA for 24 h, and were washed with serum-containing media to completely remove WA from the culture media. […] 48 h later neuronal viability was assessed by quantifying the neuronal marker MAP-2. (B) WA-mediated neuroprotection from oxidative stress.
WA was tested in a second model for neuroprotection that utilizes primary astrocytes cultured from the cerebral cortices of postnatal day 1-3 rat pups. In the CNS, astrocytes play a pivotal role in protecting neurons from oxidative stress, a hallmark of nearly all neurodegenerative diseases and disorders. […]
In this assay, which is summarized in FIG. 13, primary astrocytes were isolated from the cerebral cortices of postnatal day 1-3 rat pups, allowed to grow to confluency for ˜2 weeks, and then treated with test compound for 24 h. […] Quantification of the neuron-specific protein microtubule-associated protein-2 (MAP-2) is used to monitor neuronal specific death in this astrocyte-neuron co-culture model as described previously (Carrier et al., J. Neuroscience Methods, 154: 239-244.2006). […] HRP activity is then measured using a reaction buffer containing 150 uM amplex red (Molecular Probes) and 800 uM hydrogen peroxide (Sigma). […]

Annexin 2 = biological target: T1, Annexin 2 (Homo sapiens, UniProt P07355); assay: Pull-down with biotinylated withaferin A on NeutrAvidin beads with competition; type: binding; settings: competition with WA 40 μM, 36 kDa band, FIG. 11
T1 construct: incubated with pre-cleared whole cell extract that had been previously supplemented with WA (40 μM) or an equal volume of DMSO; endogenous in cells
Procedure: FIG. 11. Stable and specific binding of Annexin 2 by withaferin A. Biotinylated withaferin A (WA) was captured on NeutrAvidin (NA)-coated beads and incubated with pre-cleared whole cell extract that had been previously supplemented with WA (40 μM) or an equal volume of DMSO. After low stringency washes, proteins bound to beads were eluted, size fractioned by SDS-PAGE, stained with Sypro Ruby, and visualized by UV illumination. The arrowhead indicates the position of a 36 kDa band effectively competed away by WA. Pre-clear lane: Proteins in whole cell extract that bound non-specifically to NA beads alone (no immobilized WA present) during pre-clearing incubation.

[3] = system: rat spinal cord motor neurons; assay: Neurotrophic factor (BDNF) deprivation-induced apoptosis of spinal cord motor neurons; type: cell-based; settings: for reduction in cell death of motor neurons plated in the absence of BDNF: 24 hours, calcein-A
Procedure: FIGS. 12A-12D. Neuronal survival and increase in neurite length as assessed by calcein-A staining which is taken up by viable neurons. (A) In the absence of BDNF (−BDNF) there is approximately 40% reduction in viable motor neurons compared to wells with BDNF present (+BDNF). Addition of withaferin A (WA) to the motor neuron cultures plated in the absence of BDNF results in a 50% reduction in cell death at 200 nM (0.2 μM) concentration of WA and a 75% reduction in cell death at 400 nM (0.4 μM) as assessed after 24 hours. […] (B) Graph showing percent protection. (C) Motor neuron viability assay of WA. (D) WA increases neurite length (normalized to control) measured at the end of the experiment.
Neurotrophic factor deprivation-induced apoptosis of rat spinal cord motor neurons was used as a model system to evaluate neuroprotective activity of withaferin A. Primary spinal cord motor neurons were purified from E15 rats. These cells were dissociated from the ventral spinal cord, enriched by density gradient centrifugation, and purified by magnetic bead cell separation using an antibody against p75NTR which is expressed on the cell surface of motor neurons at this developmental age. The resulting cultures are ˜96% motor neurons as assessed by HB9 or islet-1 immunoreactivity and are virtually devoid of astrocytes or microglia. For viability experiments, the cells were plated at a low density (500 cells/well of a 96-well plate). In these cultures, motor neuron survival is highly dependent on trophic factors added to the culture media (in the form of BDNF, GDNF, or cardiotrophin-1), as ˜50% of the attached cells will undergo apoptosis when deprived of trophic factors (Oppenheim, R. W., et al., Nature, 360: 755-757; Henderson, C. E., et al., Science, 266: 1062-1064, 1994). BDNF was used as the trophic factor.
Neuronal survival was assessed by staining with calcein-A, a fluorescent dye that is taken up by viable neurons. […]
In some experiments, a fluorescence image of the entire well within a plate was captured using a flash cytometer (Trophos). […]

T1 sequence (P07355 whole entry, species assumed): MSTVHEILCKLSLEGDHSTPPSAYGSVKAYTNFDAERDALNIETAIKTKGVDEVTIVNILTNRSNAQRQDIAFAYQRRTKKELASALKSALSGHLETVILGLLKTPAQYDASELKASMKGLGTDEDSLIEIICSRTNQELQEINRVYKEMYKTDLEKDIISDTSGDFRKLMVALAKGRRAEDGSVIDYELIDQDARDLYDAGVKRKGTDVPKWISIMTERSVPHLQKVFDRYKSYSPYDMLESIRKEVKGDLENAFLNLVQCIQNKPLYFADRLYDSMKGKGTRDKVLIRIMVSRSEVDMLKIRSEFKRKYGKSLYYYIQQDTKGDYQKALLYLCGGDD

CC1=C(CO)C(=O)OC([C@@H](C)C2CCC3C4C[C@H]5O[C@]56[C@@H](O)C=CC(=O)[C@]6(C)C4CC[C@@]32C)C1 (stereo partly drawn) [Withaferin A]
inhibition of tumor cell growth in vitro, CHP-100 [1]: inhibit tumor growth in Ewing's sarcoma | astrocyte-dependent protection of neurons from oxidative stress (MAP-2) [2]: enhance the protection of neurons exposed to oxidative stress | binding to annexin II (Annexin 2): binds stably and selectively to annexin II | reduction in cell death of motor neurons plated in the absence of BDNF ([3]; 200 nM (0.2 μM)): 50% | reduction in cell death of motor neurons plated in the absence of BDNF ([3]; 400 nM (0.4 μM)): 75% | neurite growth of motor neurons ([3]; FIG. 12D): induces the growth of neurites
